Columns and labels:
[1] = tested on: soybean cells transformed with pMON73691
Experimental: Mature seeds of soybean [Glycine max (L.) Merrill] cv. A3525 were imbibed, sterilized, and germinated at room temperature as set forth below. Other examples of soybean genotypes that can readily be used include, but are not limited to, Jack, Williams, Bert, Thorne, Granite, Lambert, Chapman, and Kunitz. Briefly, dry seeds (about 770 g) were soaked for 3 min in 2 L of 200 ppm sodium hypochlorite solution made from commercially available Clorox. The solution was drained and the seeds were set side for about 2 h. About 2 L of bean sterilization/germination medium was then added to the seeds. After about 9-10 h, seeds were ready for hand excision of explants. The bean germination medium contained the following in mg/L—NH4NO3: 240, KNO3: 505, CaCl2.2H2O: 176, MgSO4.7H2O: 493, KH2PO4: 27, H3BO3: 1.86, Na2MoO4.2H2O: 0.216, MnSO4.H2O: 5.07, ZnSO4. 7H2O: 2.58, FeSO4.7H2O: 2.502, KI: 0.249, Na2EDTA. 2H2O: 3.348, CuSO4.5H2O: 0.0008, CoCl2.6H2O: 0.0008, B1: 1.34, B3: 0.5, B6: 0.82, Bravo (75% WP; Diamond Shamrock Company, Cleveland, Ohio): 30, Captan (50% WP; Micro Flo Company, Lakeland, Fla.): 30, Cefotaxime: 125, and Sucrose: 25000, pH 5.8).
The binary vectors described above were mobilized into disarmed Agrobacterium tumefaciens strain C58 (ABI). Agrobacterium inoculum for infection was prepared as follows: 250 ml of LB medium (Luria-Bertani; Difco, Detroit, Mich.) containing 50 mg/l kanamycin (Sigma, St. Louis, Mo.) and 75 mg/l spectinomycin (Sigma, St. Louis, Mo.) was inoculated with 0.5 ml of Agrobacterium stock in glycerol (Acros Organics, Geel, Belgium) and was shaken at 200 rpm at 28° C. for approximately 20-22 h until the OD660 reached 0.8 to 1.0. The Agrobacterium broth was then centrifuged for 25 min at 3500 rpm (about 3565 g) at 2-4° C. After removing the supernatant, the Agrobacterium pellet was re-suspended in inoculation medium containing ⅖× of the macro nutrients, 1/10× of the micro nutrients and vitamins of Gamborg's B5 medium, supplemented with 3.9 g/l MES (Sigma, St. Louis, Mo.), and 30 g/l glucose (PhytoTechnology Laboratories, Shawnee Mission, Kans.), pH 5.4. Lipoic acid (Sigma, St. Louis, Mo.) was added to the Agrobacterium suspension to a final concentration of 0.25 mM after the density of the Agrobacterium cell suspension was adjusted to an OD660 of 0.30 to 0.35.
Agrobacterium-infection and co-cultivation of the explants were conducted as follows: about 100 excised explants were dispensed into the lid of a sterile plastic culture vessel PLANTCON (MP Biomedicals, LLC, Irvine, Calif.). Five ml of Agrobacterium inoculum was added to the explants in each PLANTCON lid. The explants were then sonicated for 20 sec in a sonicator (Ultrasonic Multi Cleaner, Model W-113, Honda, Japan). One piece of Whatmann #1 filter paper (Whatman Inc., Clifton, N.J.) cut to the size of the PLANTCON bottom was placed in the bottom part of the PLANTCON. The explants were transferred from the lid onto the filter paper with the Agrobacterium inoculum. The PLANTCON s were then incubated in a Percival incubator at 16 h light (at about 85-90 μE) and 8 h dark photoperiod and at 23° C. for 2 to 4 d for co-cultivation.
After a co-cultivation period of 2-4 days, explants were first cultured on a medium without dicamba (delay medium) for 3-5 d before being transferred to the selection medium with dicamba. Until transfer from delay medium to selection medium, the explants were kept in the same PLANTCON used for co-cultivation, but 10 or 12 ml of the delay medium was added to each PLANTCON. Alternatively, the explants were transferred to new PLANTCONs, each containing one piece of autoclaved felt (Jo-Ann Fabrics & Crafts, Madison, Wis.)) and 30 ml of the delay medium.

[2] = tested on: Wild type Arabidopsis var. Columbia; conditions: 1.0 mg/L in the culture medium; FIG. 8
Experimental: The susceptibility of Arabidopsis to different levels of dicamba was first tested. Wild type Arabidopsis var. Columbia seeds were plated on plant tissue culture medium containing various levels of dicamba. […] Arabidopsis plants were then transformed with the constructs containing DMO polynucleotides using the floral dip method (Clough and Bent, 1998). R1 seeds were plated on the culture medium containing up to 4 mg/L of dicamba.

[3] = tested on: soybean explants inoculated with Agrobacterium harboring pMON73691 (DMO and GFP genes); experiment: Selection of pMON73691-inoculated soybean explants with 2,4-D or dicamba in liquid medium, GFP+ buds; format: cell-based; conditions: selective agent 0.01 mg/L; 375 explants inoculated; pMON73691
Experimental: Freshly isolated soybean explants (mature embryo axes without cotyledons) were inoculated with Agrobacterium strain ABI harboring pMON73691 (containing DMO and GFP genes). After 3-d co-culture with Agrobacterium at 23° C. and a photoperiod of 16-h light and 8-h dark, the explants were cultured in liquid delay medium which contained modified woody plant medium supplemented with 5 mg/l BAP, 200 mg/l carbenicillin, 200 mg/l cefotaxime and 100 mg/l ticarcillin. The explants were in the delay medium for 4 days. They were then transferred to liquid selection medium in PLANTCONs. The selection medium was the same as the delay medium except of addition of various levels of 2,4-D (0.01, 0.1, 1.0 or 2.0 mg/L) or 0.01 mg/L dicamba as shown in Table 9 below. Each PLANTCON contained 60 ml of the selection medium and one piece of foam sponge with 5 slits. Twenty-five explants were evenly inserted into the slits. The cultures were maintained at 28° C. and a photoperiod of 16-h light and 8-h dark, and were examined periodically under a […] equipped for detecting GFP expressing tissues.

Compound: COc1c(Cl)ccc(Cl)c1C(=O)O [dicamba, 3,6-dichloro-o-anisic acid]
- dicamba-tolerant shoots harvested ([1]; 0.01 mg/l in selection medium, from 800 explants, pMON73691): 30
- tolerant shoots harvested ([1]; 0.02 mg/l in selection medium, pMON73691): few tolerant shoots were harvested
- tolerant shoots obtained ([1]; 0.05 or 0.1 mg/l in selection medium, pMON73691): no tolerant shoots were obtained
- tolerant shoots that formed roots on rooting medium and were transferred to soil ([1]; of 30 shoots selected on 0.01 mg/l): Twelve
- plants positive for DMO-encoding polynucleotides ([1]; of ten tested, selected on 0.01 mg/l): seven
- concentration most efficacious for selecting dicamba-tolerant shoots ([1]; soybean explants, pMON73691): ≤ 0.01 mg/L
- susceptibility of wild type Arabidopsis [2]: quite susceptible
- # Explants w/GFP + buds/young shoots at 48DAI [3]: 28
